{
  "source": "patent EP1161957A1",
  "about": "“Complex for transferring an anionic substance of interest into a cell” (TRANSGENE S.A., priority 2000, dated 2001)",
  "system": "B6SJL mice",
  "details": "intravenous injection of pTG11236/peptide complexes, dead mice per group of five",
  "experimental": "Indicated amounts of the luciferase expression plasmid pTG11236 were mixed with ppTG1 and /or pcTG90/DOPE. […] Muscles, tumors or organs were recovered at the indicated points of time, macerated and tested for luciferase activity with the luciferase assay kit from Promega.\nAfter 20 min incubation at room temperature, the complexes were intravenously injected into B6SJL mice. Mice were sacrificed at day 1. The lungs were recovered, total protein was extracted and luciferase activity was analysed.\nThe potential of gene transfer with mono-component peptide vectors was investigated in vivo. […] Five mice per group were intravenously injected, the animals were sacrificed at day 1 after injection. Lungs were tested for luciferase activity.",
  "note": "Ends that are not written are not given here.",
  "data": [
    {"sequence": "GLFRALLRLLRSLWRLLLRA [ppTG20]", "values": [
      {"measurement": "toxicity", "result": "less toxic than ppTG1"}
    ]}
  ]
}
